≈ marks a conversion by molar mass, not a printed value. Where two headings read alike, the source gives them in different places.
Tests used:
[1] = Solubility measurement (DMSO solution precipitation method); assay type: physicochemical; conditions: aqueous buffer, kinetic from dmso stock, ambient temperature
Experimental: The DMSO solution is diluted with an aqueous medium (McIlvaine buffer with pH=4.5 or 6.8) to a final concentration of 250 μM. After 24 h of shaking at ambient temperature a potentially formed precipitate is removed by filtration. The concentration of the test compound in the filtrate is determined by LC-UV methods by calibrating the signal to the signal of a reference solution with complete dissolution of the test compound in acetonitrile/water (1:1) with known concentration.

KRAS G12D Ba/F3 cells = KRAS G12D Ba/F3 cells (Homo sapiens, UniProt P01116, G12D, cells depend on it); experiment: Ba/F3 proliferation assay, KRAS G12D; assay type: cell-based; conditions: 72 h, AlamarBlue; read-out: KRAS G12D Ba/F3 IC50
KRAS G12D Ba/F3 cells, sequence (P01116 whole entry G12D, canonical isoform): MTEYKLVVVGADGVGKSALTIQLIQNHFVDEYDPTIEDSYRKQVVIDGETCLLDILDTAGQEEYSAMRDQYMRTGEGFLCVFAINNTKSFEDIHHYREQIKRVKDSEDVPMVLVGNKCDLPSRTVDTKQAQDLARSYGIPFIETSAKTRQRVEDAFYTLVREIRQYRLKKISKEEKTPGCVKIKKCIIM
Experimental: To generate KRASG12-dependent Ba/F3 models, Ba/F3 cells are transduced with retroviruses containing vectors that harbor KRASG12 isoforms. Platinum-E cells (Cell Biolabs) are used for retrovirus packaging. Retrovirus is added to Ba/F3 cells. To ensure infection, 4 μg/mL polybrene is added and cells are spinfected. […] Cells with an infection efficiency of 10% to 20% are further cultivated and puromycin selection with 1 μg/mL is initiated. As a control, parental Ba/F3 cells are used to show selection status. Selection is considered successful when parental Ba/F3 cells cultures died. To evaluate the transforming potential of KRASG12 mutations, the growth medium is no longer supplemented with IL-3. Ba/F3 cells harboring the empty vector are used as a control. Approximately ten days before conducting the experiments, puromycin is left out. […] All treatments are performed in technical duplicates. […] AlamarBlue™(ThermoFisher), a viability stain, is added and fluorescence measured in the PerkinElmer Envision HTS Multilabel Reader. The raw data are imported into and analyzed with the Boehringer Ingelheim proprietary software MegaLab (curve fitting based on the program PRISM, GraphPad Inc.).

[2] = test system: SK-CO-1 cells (CRC, G12V); experiment: SK-CO-1 CTG proliferation assay (120 h); assay type: cell-based; conditions: Homo sapiens, CellTiter-Glo
Experimental: (§1) SK—CO-1 cells (ATCC HTB-39) are dispensed into 384-well plates, flat and clear bottom (Greiner, PNr. 781091) at a density of 500 cells per well in 60 μL EMEM (Sigma M5650)+10% Fetal Calf Serum (HyClone, PNr.: SH30084.03) and incubated at 37° C. in a CO2 incubator overnight. The next day, compounds (10 mM stock in DMSO) are added with the ECHO acoustic liquid handler system (Beckman Coulter), including DMSO controls. Plates are incubated for 120 h, and cell viability is measured using CellTiter-Glo luminescent cell viability reagent (Promega product code G7570). Viability (stated as percent of control) is defined as relative luminescence units RLU of each well divided by the RLU of cells in DMSO controls. IC50 values are determined from viability measurements by non-linear regression using a four-parameter model.

KRAS (G12C)::SOS1 = biological target: T1, KRAS (G12C)::SOS1 (Homo sapiens, UniProt P01116, C118S/C51S/C80L/G12C); experiment: KRAS::SOS1 AlphaScreen binding assay, KRAS G12C
T1 construct: KRAS (G12C) 1-169, N-terminal 6His-tag for purification, cleaved off; 6His-tag (N, cleaved yes)
T1 sequence (P01116 1-169 isoform P01116-2 G12C/C51S/C80L/C118S): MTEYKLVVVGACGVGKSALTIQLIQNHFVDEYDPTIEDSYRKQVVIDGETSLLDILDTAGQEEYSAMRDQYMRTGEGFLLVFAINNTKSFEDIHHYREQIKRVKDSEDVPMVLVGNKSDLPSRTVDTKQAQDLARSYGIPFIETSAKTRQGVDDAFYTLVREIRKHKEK
Experimental: Low IC50 values in this assay setting are indicative of strong inhibition of protein-protein interaction between SOS1 and KRAS:
These assays measure the inhibitory effect of compounds on KRAS mutant protein-protein interactions using the Alpha Screen technology by Perkin Elmer.
For the chosen highest assay concentration of 100 μM, 150 nL of compound solution are transferred from a 10 mM DMSO compound stock solution. A series of eleven fivefold dilutions per compound are transferred to the assay plate, compound dilutions are tested in duplicates. DMSO are added as backfill to a total volume of 150 nL.
The assays run on a fully automated robotic system in a darkened room below 100 Lux. To 150 nl of compound dilution 10 μl of a mix including KRAS mutant protein, SOS1 (final assay concentrations see above) and GDP nucleotide (Sigma G7127; final assay concentration 10 μM) in assay buffer (1×PBS, 0.1% BSA, 0.05% Tween 20) are added into columns 1-24. After 30 minutes incubation time 5 μl of Alpha Screen bead mix in assay buffer are added into columns 1-23.
Plates are kept at room temperature in a darkened incubator. After an additional 60 minutes incubation time the signal is measured in a PerkinElmer Envision HTS Multilabel Reader using the AlphaScreen specs from PerkinElmer.
IC50 values are calculated and analyzed with Boehringer Ingelheim's MEGALAB IC50 application using a 4 parametric logistic model.

[3] = test system: NCI-H2122 cells (NSCLC, G12C); experiment: NCI-H2122 CTG proliferation assay (120 h); assay type: cell-based; conditions: Homo sapiens, CellTiter-Glo
Experimental: The CTG assay is designed to measure quantitatively the proliferation of NCI-H2122 cells (ATCC CRL-5985), using the CellTiter Glow Assay Kit (Promega G7571). Cells are grown in RPMI medium (ATCC) supplemented with Fetal Calf Serum (Life Technologies, Gibco BRL, Cat. No. 10270-106). On “day 0” 200 NCI-H2122 cells are seeded in 60 μL RPMI ATCC+10% FCS+ Penstrep in a black 384-well plate, flat and clear bottom (Greiner, PNr. 781091). Cells are then incubated in the plates at 37° C. in a CO2 incubator overnight. On day 1, compounds (10 mM stock in DMSO) are added with the ECHO acoustic liquid handler system (Beckman Coulter), including DMSO controls. Plates are incubated for 120 h, and cell viability is measured using CellTiter-Glo luminescent cell viability reagent (Promega product code G7570). Viability (stated as percent of control) is defined as relative luminescence units RLU of each well divided by the RLU of cells in DMSO controls. IC50 values are determined from viability measurements by non-linear regression using a four-parameter model.

[4] = test system: SAS cells (HNSCC, wt amplified); experiment: SAS CTG proliferation assay (120 h); assay type: cell-based; conditions: CellTiter-Glo
Experimental: as §1, with “SAS” for “SK—CO-1”, “(JCRB0260)” for “(ATCC HTB-39)”, “300” for “500”, “DMEM:F12 (Gibco 31330-038)+10%” for “EMEM (Sigma M5650)+10%”

[5] = McIlvaine buffer pH 4.5, 24 h, read-out: solubility pH 4.5
[6] = McIlvaine buffer pH 6.8, 24 h, read-out: solubility pH 6.8

## C[C@H]1CNCCCN1c1nccc(-c2noc3c2CCC[C@@]32CCCc3sc(N)c(C#N)c32)n1 (single isomer, unassigned) [IIb-5]
[1]; [5]
  solubility at 24 h: 92 µg/mL (≈ 193 µM)
[1]; [6]
  solubility at 24 h: 51 µg/mL (≈ 107 µM)
KRAS G12D Ba/F3 cells
  GI50: 32 nM
[2]
  IC50: 563 nM
KRAS (G12C)::SOS1
  IC50: 7 nM
[3]
  IC50: 6360 nM
[4]
  IC50: 541 nM

## CC1Cc2c(-c3ccnc(N4CCCNC[C@@H]4C)n3)noc2C2(CCCc3sc(N)c(C#N)c32)C1 (stereo partly drawn) [IIb-1]
[1]; [5]
  solubility at 24 h: 57 µg/mL (≈ 116 µM)
[1]; [6]
  solubility at 24 h: 32 µg/mL (≈ 65.4 µM)
KRAS G12D Ba/F3 cells
  GI50: 469 nM
[2]
  IC50: 2690 nM
KRAS (G12C)::SOS1
  IC50: 44 nM
[3]
  IC50: 3920 nM
[4]
  IC50: 8230 nM

## C[C@H]1CNCCCN1c1nccc(-c2noc3c2CC(F)(F)CC32CCCc3sc(N)c(C#N)c32)n1 (stereo partly drawn) [IIb-2]
[1]; [5]
  solubility at 24 h: 53 µg/mL (≈ 104 µM)
[1]; [6]
  solubility at 24 h: 27 µg/mL (≈ 52.8 µM)
KRAS G12D Ba/F3 cells
  GI50: 798 nM
[2]
  IC50: 6240 nM
KRAS (G12C)::SOS1
  IC50: 39 nM
[3]
  IC50: 4850 nM
[4]
  IC50: 2960 nM

## C[C@H](Oc1ccnc(-c2noc3c2CCC[C@@]32CCCc3sc(N)c(C#N)c32)n1)[C@@H]1CCCN1C [IIb-3]
[1]; [5]
  solubility at 24 h: > 117 µg/mL
[1]; [6]
  solubility at 24 h: > 120 µg/mL
KRAS G12D Ba/F3 cells
  GI50: 16 nM
[2]
  IC50: 285 nM
KRAS (G12C)::SOS1
  IC50: 3 nM
[4]
  IC50: 4960 nM

## C[C@H]1CNCCCN1c1nccc(-c2noc3c2CSCC32CCCc3sc(N)c(C#N)c32)n1 (stereo partly drawn) [IIb-4]
KRAS G12D Ba/F3 cells
  GI50: 174 nM
[2]
  IC50: 2390 nM
KRAS (G12C)::SOS1
  IC50: 19 nM
[3]
  IC50: 4020 nM
[4]
  IC50: 8080 nM

## C[C@H]1CNCCCN1c1nccc(-c2noc3c2OCCC32CCCc3sc(N)c(C#N)c32)n1 (stereo partly drawn) [IIb-7]
[1]; [5]
  solubility at 24 h: > 103 µg/mL
[1]; [6]
  solubility at 24 h: > 100 µg/mL
KRAS G12D Ba/F3 cells
  GI50: 123 nM
[2]
  IC50: 455 nM
KRAS (G12C)::SOS1
  IC50: 4 nM
[3]
  IC50: 1940 nM
[4]
  IC50: 6600 nM

## C[C@H](Oc1nccc(-c2noc3c2CCC[C@@]32CCCc3sc(N)c(C#N)c32)n1)[C@@]1(C)CCCN1C [IIe-1]
[1]; [5]
  solubility at 24 h: > 115 µg/mL
[1]; [6]
  solubility at 24 h: > 114 µg/mL
KRAS G12D Ba/F3 cells
  GI50: 155 nM
[2]
  IC50: 1030 nM
KRAS (G12C)::SOS1
  IC50: 8 nM
[3]
  IC50: 6380 nM
[4]
  IC50: 4530 nM

## C[C@H]1CNCCN1c1nccc(-c2noc3c2CCC[C@@]32CCCc3sc(N)c(C#N)c32)n1 [IIf-1]
[2]
  IC50: 600 nM
[3]
  IC50: 2860 nM
[4]
  IC50: 1380 nM

## C[C@@H]1NCCCN(c2nccc(-c3onc4c3CCC[C@@]43CCCc4sc(N)c(C#N)c43)n2)[C@H]1C [Ib-2]
KRAS G12D Ba/F3 cells
  GI50: 101 nM
[2]
  IC50: 457 nM
KRAS (G12C)::SOS1
  IC50: 14 nM
[3]
  IC50: 8350 nM
[4]
  IC50: 1090 nM

## C[C@H]1CNCCCN1c1ncnc(-c2onc3c2CCC[C@@]32CCCc3sc(N)c(C#N)c32)n1 [Ib-4]
[1]; [5]
  solubility at 24 h: > 104 µg/mL
[1]; [6]
  solubility at 24 h: 95 µg/mL (≈ 199 µM)
KRAS G12D Ba/F3 cells
  GI50: 211 nM
[2]
  IC50: 930 nM
KRAS (G12C)::SOS1
  IC50: 9 nM
[3]
  IC50: > 25000 nM
[4]
  IC50: 57 nM

## C[C@H]1[C@@H]2CCCN2CCCN1c1nccc(-c2onc3c2CCC[C@@]32CCCc3sc(N)c(C#N)c32)n1 [Id-1]
[1]; [5]
  solubility at 24 h: > 117 µg/mL
[1]; [6]
  solubility at 24 h: > 108 µg/mL
KRAS G12D Ba/F3 cells
  GI50: 27 nM
[2]
  IC50: 4680 nM
KRAS (G12C)::SOS1
  IC50: 3 nM
[3]
  IC50: 9460 nM
[4]
  IC50: 3990 nM

## CO[C@@H]1C[C@@H]([C@H](C)Oc2nccc(-c3onc4c3CCC[C@@]43CCCc4sc(N)c(C#N)c43)n2)N(C)C1 [Ie-1]
KRAS G12D Ba/F3 cells
  GI50: 28 nM
[2]
  IC50: 2520 nM
KRAS (G12C)::SOS1
  IC50: 3 nM
[3]
  IC50: 1500 nM
[4]
  IC50: 13600 nM

## C[C@H](Oc1nccc(-c2onc3c2CCC[C@@]32CCCc3sc(N)c(C#N)c32)n1)[C@@H]1C[C@@H](F)CN1C [Ie-2]
[1]; [5]
  solubility at 24 h: > 125 µg/mL
[1]; [6]
  solubility at 24 h: 41 µg/mL (≈ 80.6 µM)
KRAS G12D Ba/F3 cells
  GI50: 66 nM
[2]
  IC50: 1040 nM
KRAS (G12C)::SOS1
  IC50: 5 nM
[3]
  IC50: 1620 nM
[4]
  IC50: 8000 nM

## CC(Oc1nccc(-c2onc3c2CCC[C@@]32CCCc3sc(N)c(C#N)c32)n1)C12CCCN1CCC2 (stereo partly drawn) [Ie-5]
KRAS G12D Ba/F3 cells
  GI50: 66 nM
[2]
  IC50: 798 nM
KRAS (G12C)::SOS1
  IC50: 6 nM
[3]
  IC50: 1220 nM
[4]
  IC50: 1710 nM

## C[C@H]1CNCCCN1c1nccc(-c2onc3c2CCC[C@@]32CCCc3sc(N)c(C#N)c32)n1 [If-1]
KRAS G12D Ba/F3 cells
  GI50: 77 nM
[2]
  IC50: 2730 nM
KRAS (G12C)::SOS1
  IC50: 8 nM
[3]
  IC50: 10700 nM
[4]
  IC50: 8270 nM

— patent publication US20250129096A1, “ANNULATED 2-AMINO-3-CYANO THIOPHENES AND DERIVATIVES FOR THE TREATMENT OF CANCER” (Boehringer Ingelheim Int'l GmbH Corp., priority 2021, published 2025)
